# Reference: ChEMBL document CHEMBL2016545, “Discovery of S-777469: an orally available CB2 agonist as an antipruritic agent” (Bioorg Med Chem Lett, 2012)
# Assays:
# Cannabinoid receptor 2 [1] = molecular target: T1, Cannabinoid receptor 2 (Homo sapiens, UniProt P34972); assay: Agonist activity at human CB2 receptor expressed in CHO cells assessed as inhibition of forskolin-induced cAMP release after 45 mins; type: functional, cell-based
# Cannabinoid receptor 1 [2] = molecular target: T2, Cannabinoid receptor 1 (Homo sapiens, UniProt P21554); assay: Displacement of [3H]-CP55940 from human recombinant CB1 receptor after 60 mins
# T2 sequence (P21554 whole entry): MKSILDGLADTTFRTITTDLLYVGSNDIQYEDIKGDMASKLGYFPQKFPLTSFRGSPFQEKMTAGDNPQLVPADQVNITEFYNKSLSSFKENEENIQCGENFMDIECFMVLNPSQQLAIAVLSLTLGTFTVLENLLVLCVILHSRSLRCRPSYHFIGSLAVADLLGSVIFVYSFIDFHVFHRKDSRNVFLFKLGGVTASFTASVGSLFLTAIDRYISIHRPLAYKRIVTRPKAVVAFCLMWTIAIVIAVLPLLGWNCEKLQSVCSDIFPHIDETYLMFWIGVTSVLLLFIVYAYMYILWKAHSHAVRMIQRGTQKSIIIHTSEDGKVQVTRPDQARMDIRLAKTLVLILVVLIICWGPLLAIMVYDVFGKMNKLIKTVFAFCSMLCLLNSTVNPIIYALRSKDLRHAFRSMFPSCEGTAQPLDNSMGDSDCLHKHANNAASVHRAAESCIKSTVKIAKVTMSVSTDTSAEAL
# Cannabinoid receptor 2 [3] = molecular target: T1, Cannabinoid receptor 2; assay: Displacement of [3H]-CP55940 from human recombinant CB2 receptor after 60 mins
# Cannabinoid receptor 1 [4] = molecular target: T2, Cannabinoid receptor 1; assay: Agonist activity at human CB1 receptor expressed in CHO cells assessed as inhibition of forskolin-induced cAMP release after 25 mins; type: functional, cell-based
# Mus musculus [5] = assay: Neurotoxicity in ICR mouse assessed as psychoactivity at 0.1 to 1 mg/kg, iv; type: toxicity, organism-based; design: dose 0.1-1 mg/kg, route intravenous; settings: in vivo
# Mus musculus [6] = organism: Mus musculus; assay: animal or person; settings: ICR, po, 0.5 h, read-out: INH
# Mus musculus [7] = assay: Antipruritic activity in ICR mouse assessed as inhibition of compound 48/80-induced scratching at 1 mg/kg, po measured after 30 mins; type: functional; settings: 0.5 h
# Mus musculus [8] = assay: Antipruritic activity in ICR mouse assessed as inhibition of compound 48/80-induced scratching at 3 mg/kg, po measured after 30 mins; type: functional; settings: 0.5 h
# Mus musculus [9] = assay: Antipruritic activity in ICR mouse assessed as inhibition of compound 48/80-induced scratching at 10 mg/kg, po measured after 30 mins; type: functional; settings: 0.5 h
# [10] = Clearance in rat at 3 mg/kg, iv; type: ADME, organism-based; design: dose 3 mg/kg, route intravenous; settings: in vivo
# [11] = Clearance in beagle dog at 3 mg/kg, iv; type: ADME, organism-based, Canis lupus familiaris; design: dose 3 mg/kg, route intravenous; settings: in vivo
# [12] = Clearance in cynomolgus monkey at 3 mg/kg, iv; type: ADME, organism-based, Macaca fascicularis; design: dose 3 mg/kg, route intravenous; settings: in vivo
# [13] = Half life in rat at 10 mg/kg, po; type: ADME, organism-based; design: dose 10 mg/kg, route oral; settings: in vivo
# [14] = Half life in beagle dog at 10 mg/kg, po; type: ADME, organism-based, Canis lupus familiaris; design: dose 10 mg/kg, route oral; settings: in vivo
# [15] = Half life in cynomolgus monkey at 10 mg/kg, po; type: ADME, organism-based, Macaca fascicularis; design: dose 10 mg/kg, route oral; settings: in vivo
# [16] = Volume of distribution at steady state in rat at 3 mg/kg, iv; type: ADME, organism-based; design: dose 3 mg/kg, route intravenous; settings: in vivo, read-out: Vdss
# [17] = Volume of distribution at steady state in beagle dog at 3 mg/kg, iv; type: ADME, organism-based, Canis lupus familiaris; design: dose 3 mg/kg, route intravenous; settings: in vivo, read-out: Vdss
# [18] = Volume of distribution at steady state in cynomolgus monkey at 3 mg/kg, iv; type: ADME, organism-based, Macaca fascicularis; design: dose 3 mg/kg, route intravenous; settings: in vivo, read-out: Vdss
# [19] = Oral bioavailability in rat at 10 mg/kg; type: ADME, organism-based; settings: in vivo
# [20] = Oral bioavailability in beagle dog at 10 mg/kg; type: ADME, organism-based, Canis lupus familiaris; settings: in vivo
# [21] = Oral bioavailability in cynomolgus monkey at 10 mg/kg; type: ADME, organism-based, Macaca fascicularis; settings: in vivo
# T1 sequence (P34972 whole entry): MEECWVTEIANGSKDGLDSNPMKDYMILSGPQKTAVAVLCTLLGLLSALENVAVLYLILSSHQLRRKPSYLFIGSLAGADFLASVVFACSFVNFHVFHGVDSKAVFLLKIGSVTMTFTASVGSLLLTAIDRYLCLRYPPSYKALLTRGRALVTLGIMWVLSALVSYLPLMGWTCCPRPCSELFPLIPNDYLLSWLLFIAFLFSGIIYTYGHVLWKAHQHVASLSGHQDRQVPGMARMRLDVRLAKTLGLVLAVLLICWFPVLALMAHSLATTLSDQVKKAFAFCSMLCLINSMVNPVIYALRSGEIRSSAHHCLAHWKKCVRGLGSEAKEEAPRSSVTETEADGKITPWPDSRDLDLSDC
SMILES,IC50 (Cannabinoid receptor 2 [1]),Ki (Cannabinoid receptor 1 [2]),Ki (Cannabinoid receptor 2 [3]),IC50 (Cannabinoid receptor 1 [4]),other results
O=C(NC1(C(=O)O)CCCCCCC1)c1cc2c(n(CC3CCCCC3)c1=O)CCCCCC2,1 nM,,,,
O=C(O)CNC(=O)c1cc2c(n(CC3CCCCC3)c1=O)CCCCCC2,,1060 nM,177 nM,,
O=C(NC1(C(=O)O)CCCCC1)c1cc2c(n(CC3CCCCC3)c1=O)CCCCCC2,7 nM,181 nM,6.7 nM,76 nM,Activity (Mus musculus [5]): Non-toxic
O=C(NC1(C(=O)O)CCCCC1)c1cc2c(n(CC3CCCO3)c1=O)CCCCCC2 (stereo not given),,> 5000 nM,247 nM,,
CCN1CCCC1Cn1c2c(cc(C(=O)NC3(C(=O)O)CCCCC3)c1=O)CCCCCC2 (stereo not given),,,2110 nM,,
O=C(NC1(C(=O)O)CCCC1)c1cc2c(n(CC3CCCCC3)c1=O)CCCCCC2,14 nM,258 nM,56 nM,113 nM,
CCCCn1c2c(cc(C(=O)NC3(C(=O)O)CCCCC3)c1=O)CCCCCC2,7 nM,> 5000 nM,56 nM,> 2000 nM,
CCCCn1c(CCC)c(Br)cc(C(=O)NC2(C(=O)O)CCCCC2)c1=O,,> 5000 nM,382 nM,,
CCCCn1c(CC)c(C)cc(C(=O)NC2(C(=O)O)CCCCC2)c1=O,,,348 nM,,
O=C(NC1(C(=O)O)CCCCC1)c1cc2c(n(Cc3ccc(F)cc3)c1=O)CCCCCC2,9 nM,266 nM,16 nM,514 nM,
CC(C)(C(=O)O)c1ccc(C(O)CCCN2CCC(C(O)(c3ccccc3)c3ccccc3)CC2)cc1 (stereo not given) [FEXOFENADINE],,,,,inhibition in vivo at 30 mg/kg (Mus musculus [6]): 39%
N#Cc1ccc(Cn2c3c(cc(C(=O)NC4(C(=O)O)CCCCC4)c2=O)CCCCCC3)cc1,,3950 nM,144 nM,,
CCc1c(C)cc(C(=O)NC2(C(=O)O)CCCCC2)c(=O)n1Cc1ccc(F)cc1 [S-777469],,4070 nM,,> 2000 nM,inhibition in vivo at 1 mg/kg (Mus musculus [7]): 46%; inhibition in vivo at 3 mg/kg (Mus musculus [8]): 48%; inhibition in vivo at 10 mg/kg (Mus musculus [9]): 59%; clearance [10]: 11.3 mL/min/kg; clearance [11]: 6 mL/min/kg; clearance [12]: 13.6 mL/min/kg; half-life [13]: 6.2 h; half-life [14]: 12.8 h; half-life [15]: 7.43 h; Vd [16]: 1.9 L/kg; Vd [17]: 1.23 L/kg; Vd [18]: 0.87 L/kg; bioavailability [19]: 37.9%; bioavailability [20]: 18.7%; bioavailability [21]: 9.01%
COCCn1c2c(cc(C(=O)NC3(C(=O)O)CCCCC3)c1=O)CCCCCC2,,> 5000 nM,294 nM,,
CCCc1c(CC)cc(C(=O)NC2(C(=O)O)CCCCC2)c(=O)n1Cc1ccc(F)cc1,,> 5000 nM,263 nM,,
